PubChem BioAssay AID1845206 (Molecular Pharmacology Branch, DTP, NCI, 2023)
pIC50: −log10 of the molar value. Activity calls are given as the source filed them. Rule for the calls: active = viability on the fitted dose curve at most 10% of control; inactive = the rest.

Test system: NCI-H1618 multicellular tumor spheroid viability
Test: Anticancer human tumor NCI-H1618 cell line growth inhibition;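 note: spheroids exposed to agents for 7 days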
Conditions: for pIC50: curve of first compound; for viability, T/C: stronger effect = lower value
Procedure, shortened: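 Single agents and combinations were tested on spheroids built from tumor cells plus HUVEC and hMSC, at half-log dilutions starting at or near clinical Cmax, else 10 microM; final DMSO 0.25% (v/v).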

[1] = second compound 30 pM, first compound 0.0316 µM
[2] = second compound 30 pM, first compound 0.1 µM
[3] = second compound 30 pM, first compound 0.316 µM
[4] = second compound 30 pM, first compound 1 µM
[5] = second compound 30 pM, first compound 3.16 µM
[6] = second compound 30 pM, first compound 10 µM
[7] = second compound 94.9 pM, first compound 0.0316 µM
[8] = second compound 94.9 pM, first compound 0.1 µM
[9] = second compound 94.9 pM, first compound 0.316 µM
[10] = second compound 94.9 pM, first compound 1 µM
[11] = second compound 94.9 pM, first compound 3.16 µM
[12] = second compound 94.9 pM, first compound 10 µM
[13] = second compound 0.0003 µM, first compound 0.0316 µM
[14] = second compound 0.0003 µM, first compound 0.1 µM
[15] = second compound 0.0003 µM, first compound 0.316 µM
[16] = second compound 0.0003 µM, first compound 1 µM
[17] = second compound 0.0003 µM, first compound 3.16 µM
[18] = second compound 0.0003 µM, first compound 10 µM
[19] = second compound 0.000949 µM, first compound 0.0316 µM
[20] = second compound 0.000949 µM, first compound 0.1 µM
[21] = second compound 0.000949 µM, first compound 0.316 µM
[22] = second compound 0.000949 µM, first compound 1 µM
[23] = second compound 0.000949 µM, first compound 3.16 µM
[24] = second compound 0.000949 µM, first compound 10 µM
[25] = second compound 0.003 µM, first compound 0.0316 µM
[26] = second compound 0.003 µM, first compound 0.1 µM
[27] = second compound 0.003 µM, first compound 0.316 µM
[28] = second compound 0.003 µM, first compound 1 µM
[29] = second compound 0.003 µM, first compound 3.16 µM
[30] = second compound 0.003 µM, first compound 10 µM
[31] = second compound 1 µM, first compound 0.00949 µM
[32] = second compound 1 µM, first compound 0.03 µM
[33] = second compound 1 µM, first compound 0.0949 µM
[34] = second compound 1 µM, first compound 0.3 µM
[35] = second compound 1 µM, first compound 0.949 µM
[36] = second compound 1 µM, first compound 3 µM
[37] = second compound 3.16 µM, first compound 0.00949 µM
[38] = second compound 3.16 µM, first compound 0.03 µM
[39] = second compound 3.16 µM, first compound 0.0949 µM
[40] = second compound 3.16 µM, first compound 0.3 µM
[41] = second compound 3.16 µM, first compound 0.949 µM
[42] = second compound 3.16 µM, first compound 3 µM
[43] = second compound 10 µM, first compound 0.00949 µM
[44] = second compound 10 µM, first compound 0.03 µM
[45] = second compound 10 µM, first compound 0.0949 µM
[46] = second compound 10 µM, first compound 0.3 µM
[47] = second compound 10 µM, first compound 0.949 µM
[48] = second compound 10 µM, first compound 3 µM
[49] = second compound 31.6 µM, first compound 0.00949 µM
[50] = second compound 31.6 µM, first compound 0.03 µM
[51] = second compound 31.6 µM, first compound 0.0949 µM
[52] = second compound 31.6 µM, first compound 0.3 µM
[53] = second compound 31.6 µM, first compound 0.949 µM
[54] = second compound 31.6 µM, first compound 3 µM
[55] = second compound 100 µM, first compound 0.00949 µM
[56] = second compound 100 µM, first compound 0.03 µM
[57] = second compound 100 µM, first compound 0.0949 µM
[58] = second compound 100 µM, first compound 0.3 µM
[59] = second compound 100 µM, first compound 0.949 µM
[60] = second compound 100 µM, first compound 3 µM

CC(C)n1c(=O)n(C)c2cnc3cc(F)c(-c4ccc(OCCCN5CCCCC5)nc4)cc3c21 + COc1cc2c(cc1O)CCNC21CSC2c3c(OC(C)=O)c(C)c4c(c3C(COC1=O)N1C(O)C3Cc5cc(C)c(OC)c(O)c5C(C21)N3C)OCO4
pIC50 (second compound 30 pM): 5.14 | pIC50 (second compound 94.9 pM): > 7.50 | pIC50 (second compound 0.0003 µM): > 7.50 | pIC50 (second compound 0.000949 µM): > 7.50 | pIC50 (second compound 0.003 µM): > 7.50 | viability, T/C [1]: 98.6% | viability, T/C [2]: 66.3% | viability, T/C [3]: 83% | viability, T/C [4]: 103% | viability, T/C [5]: 70% | viability, T/C [6]: 42.2% | viability, T/C [7]: 46.2% | viability, T/C [8]: 13.4% | viability, T/C [9]: 36.4% | viability, T/C [10]: 42.7% | viability, T/C [11]: 34.5% | viability, T/C [12]: 15.9% | viability, T/C [13]: 3.13% | viability, T/C [14]: 2.8% | viability, T/C [15]: 4.96% | viability, T/C [16]: 7.62% | viability, T/C [17]: 9.67% | viability, T/C [18]: 7.88% | viability, T/C [19]: 5.33% | viability, T/C [20]: 5.23% | viability, T/C [21]: 5.71% | viability, T/C [22]: 5.14% | viability, T/C [23]: 5.57% | viability, T/C [24]: 8.28% | viability, T/C [25]: 5.09% | viability, T/C [26]: 4.6% | viability, T/C [27]: 4.56% | viability, T/C [28]: 5.67% | viability, T/C [29]: 3.66% | viability, T/C [30]: 5.04%

COc1ccc([C@@H](O)c2cc(-c3ncnc4cc(N5CCOCC5)ccc34)c(F)cc2Cl)nn1 + COc1cc2c(cc1O)CCNC21CSC2c3c(OC(C)=O)c(C)c4c(c3C(COC1=O)N1C(O)C3Cc5cc(C)c(OC)c(O)c5C(C21)N3C)OCO4
pIC50 (second compound 30 pM): 5.43 | pIC50 (second compound 94.9 pM): 5.84 | pIC50 (second compound 0.0003 µM): > 7.50 | pIC50 (second compound 0.000949 µM): > 7.50 | pIC50 (second compound 0.003 µM): > 7.50 | viability, T/C [1]: 94.5% | viability, T/C [2]: 103% | viability, T/C [3]: 104% | viability, T/C [4]: 97.6% | viability, T/C [5]: 55.8% | viability, T/C [6]: 15% | viability, T/C [7]: 75.4% | viability, T/C [8]: 82.7% | viability, T/C [9]: 55.5% | viability, T/C [10]: 65.7% | viability, T/C [11]: 32.6% | viability, T/C [12]: 3.93% | viability, T/C [13]: 14.8% | viability, T/C [14]: 29.8% | viability, T/C [15]: 13.9% | viability, T/C [16]: 3.02% | viability, T/C [17]: 3.64% | viability, T/C [18]: 0.49% | viability, T/C [19]: 4.34% | viability, T/C [20]: 4.36% | viability, T/C [21]: 3.33% | viability, T/C [22]: 3.78% | viability, T/C [23]: 5.45% | viability, T/C [24]: 0.45% | viability, T/C [25]: 2.98% | viability, T/C [26]: 4.77% | viability, T/C [27]: 4.99% | viability, T/C [28]: 3.43% | viability, T/C [29]: 2.67% | viability, T/C [30]: 1.04%

CNCc1ccc(-c2cc(-c3nc(-c4ccc(S(=O)(=O)C(C)C)cc4)cnc3N)on2)cc1 + Cn1nnc2c(C(N)=O)ncn2c1=O
pIC50 (second compound 1 µM): 7.24 | pIC50 (second compound 3.16 µM): > 8.02 | pIC50 (second compound 10 µM): > 8.02 | pIC50 (second compound 31.6 µM): > 8.02 | pIC50 (second compound 100 µM): > 8.02 | viability, T/C [31]: 87.1% | viability, T/C [32]: 89.3% | viability, T/C [33]: 20% | viability, T/C [34]: 9.42% | viability, T/C [35]: 1.93% | viability, T/C [36]: 0.47% | viability, T/C [37]: 11.2% | viability, T/C [38]: 23.2% | viability, T/C [39]: 21.4% | viability, T/C [40]: 2.21% | viability, T/C [41]: 1.04% | viability, T/C [42]: 0.58% | viability, T/C [43]: 8.64% | viability, T/C [44]: 4.75% | viability, T/C [45]: 3.76% | viability, T/C [46]: 1.59% | viability, T/C [47]: 0.8% | viability, T/C [48]: 16.5% | viability, T/C [49]: 10.5% | viability, T/C [50]: 14.6% | viability, T/C [51]: 19.2% | viability, T/C [52]: 1.44% | viability, T/C [53]: 1.18% | viability, T/C [54]: 18.5% | outcome [55]: inactive | viability, T/C [56]: 24.1% | viability, T/C [57]: 13.9% | viability, T/C [58]: 1.69% | viability, T/C [59]: 19.3% | viability, T/C [60]: 0.46%

Cn1ncnc1[C@H]1c2n[nH]c(=O)c3cc(F)cc(c23)N[C@@H]1c1ccc(F)cc1 + Cn1nnc2c(C(N)=O)ncn2c1=O
pIC50 (second compound 1 µM): 8.01 | pIC50 (second compound 3.16 µM): > 8.02 | pIC50 (second compound 10 µM): > 8.02 | pIC50 (second compound 31.6 µM): > 8.02 | pIC50 (second compound 100 µM): > 8.02 | viability, T/C [31]: 50.5% | viability, T/C [32]: 26.7% | viability, T/C [33]: 4.42% | viability, T/C [34]: 1.85% | viability, T/C [35]: 2.02% | viability, T/C [36]: 2.04% | viability, T/C [37]: 3.96% | viability, T/C [38]: 22.4% | viability, T/C [39]: 21.4% | viability, T/C [40]: 1.75% | viability, T/C [41]: 1.84% | viability, T/C [42]: 19.8% | viability, T/C [43]: 19.2% | viability, T/C [44]: 1.53% | viability, T/C [45]: 2.45% | viability, T/C [46]: 2.8% | viability, T/C [47]: 18.3% | viability, T/C [48]: 1.95% | viability, T/C [49]: 1.95% | viability, T/C [50]: 1.94% | viability, T/C [51]: 3.12% | viability, T/C [52]: 1.9% | viability, T/C [53]: 1.85% | viability, T/C [54]: 2.06% | viability, T/C [55]: 1.84% | viability, T/C [56]: 2.1% | viability, T/C [57]: 2.47% | viability, T/C [58]: 2.51% | viability, T/C [59]: 18.2% | viability, T/C [60]: 2.29%

O=C(c1cc(Cc2n[nH]c(=O)c3ccccc23)ccc1F)N1CCN(C(=O)C2CC2)CC1 + Cn1nnc2c(C(N)=O)ncn2c1=O
pIC50 (second compound 1 µM): 6.75 | pIC50 (second compound 3.16 µM): > 7.02 | pIC50 (second compound 10 µM): > 7.02 | pIC50 (second compound 31.6 µM): > 7.02 | pIC50 (second compound 100 µM): > 7.02 | viability, T/C [33]: 77.8% | viability, T/C [34]: 22.5% | viability, T/C [35]: 23.6% | viability, T/C [36]: 20.8% | viability, T/C (second compound 1 µM, first compound 9.49 µM): 2.93% | viability, T/C (second compound 1 µM, first compound 30 µM): 5.71% | viability, T/C [39]: 19.4% | viability, T/C [40]: 25.9% | viability, T/C [41]: 23.3% | viability, T/C [42]: 3.5% | viability, T/C (second compound 3.16 µM, first compound 9.49 µM): 24.2% | viability, T/C (second compound 3.16 µM, first compound 30 µM): 8.1% | viability, T/C [45]: 24.5% | viability, T/C [46]: 23.7% | viability, T/C [47]: 21.8% | viability, T/C [48]: 20% | viability, T/C (second compound 10 µM, first compound 9.49 µM): 20.2% | viability, T/C (second compound 10 µM, first compound 30 µM): 5.57% | viability, T/C [51]: 24.9% | viability, T/C [52]: 26.2% | viability, T/C [53]: 21.8% | viability, T/C [54]: 20.8% | viability, T/C (second compound 31.6 µM, first compound 9.49 µM): 20.5% | viability, T/C (second compound 31.6 µM, first compound 30 µM): 3.19% | viability, T/C [57]: 21.8% | viability, T/C [58]: 23.7% | viability, T/C [59]: 23% | viability, T/C [60]: 21.4% | viability, T/C (second compound 100 µM, first compound 9.49 µM): 2.71% | viability, T/C (second compound 100 µM, first compound 30 µM): 2.88%
